Reference: ChEMBL document CHEMBL1201862, “PubChem BioAssay data set” (2004)
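Assay format: 96-well plates, 48-hour exposure. The concentration for 50% growth inhibition is given as GI50.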 Activity calls are given as the source filed them. Cut-off read from the data, not from the text of the source: active = GI50 up to about 1.1 µM and inactive = higher.

Experiments:
Assay in all cases: growth of human tumour cells (NCI), 48 h
U-251 = test system: U-251
CAKI-1 = test system: CAKI-1
SK-MEL-28 = test system: SK-MEL-28
HL-60 = test system: HL-60
SF-295 = test system: SF-295
HCT-15 = test system: HCT-15
OVCAR-5 = test system: OVCAR-5
DU-145 = test system: DU-145
OVCAR-4 = test system: OVCAR-4
HOP-62 = test system: HOP-62
Malme-3M = test system: Malme-3M
TK-10 = test system: TK-10
SN12C = test system: SN12C
UO-31 = test system: UO-31
MCF7 = test system: MCF7
SK-MEL-2 = test system: SK-MEL-2
NCI-H460 = test system: NCI-H460

| Structure (SMILES) | GI50 (U-251) | GI50 (CAKI-1) | GI50 (SK-MEL-28) | GI50 (HL-60) | GI50 (SF-295) | GI50 (HCT-15) | GI50 (OVCAR-5) | GI50 (DU-145) | GI50 (OVCAR-4) | GI50 (HOP-62) | GI50 (Malme-3M) | GI50 (TK-10) | GI50 (SN12C) | GI50 (UO-31) | GI50 (MCF7) | GI50 (SK-MEL-2) | GI50 (NCI-H460) |
| --- | --- | --- | --- | --- | --- | --- | --- | --- | --- | --- | --- | --- | --- | --- | --- | --- | --- |
| CCCCC1(O)CC2CC1C(C)C2(C)C (configuration not stated) | > 100 µM (inactive) | > 100 µM (inactive) | > 100 µM (inactive) | 21.5 µM (inactive) | > 100 µM (inactive) | > 100 µM | > 100 µM (inactive) | > 100 µM (inactive) | > 100 µM (inactive) | > 100 µM (inactive) | > 100 µM (inactive) | > 100 µM (inactive) | > 100 µM (inactive) | > 100 µM (inactive) | > 100 µM (inactive) | – | – |
| C/C=N\n1c(C)c(C#N)c(C#N)c1N | > 100 µM (inactive) | > 100 µM (inactive) | – | > 100 µM (inactive) | > 100 µM (inactive) | > 100 µM | > 100 µM (inactive) | > 100 µM (inactive) | > 100 µM (inactive) | > 100 µM (inactive) | > 100 µM (inactive) | > 100 µM (inactive) | > 100 µM (inactive) | > 100 µM (inactive) | > 100 µM (inactive) | > 100 µM (inactive) | – |
| COc1c2cc(C(C)(C)C)cc1Cc1cccc(c1O)Cc1cc(C(C)(C)C)cc(c1OC)Cc1cccc(c1O)Cc1cc(C(C)(C)C)cc(c1OC)Cc1cccc(c1O)C2 | > 100 µM (inactive) | > 100 µM (inactive) | > 100 µM (inactive) | > 100 µM (inactive) | > 100 µM (inactive) | > 100 µM | > 100 µM (inactive) | > 100 µM (inactive) | – | > 100 µM (inactive) | > 100 µM (inactive) | – | > 100 µM (inactive) | > 100 µM (inactive) | > 100 µM (inactive) | > 100 µM (inactive) | > 100 µM (inactive) |
| C[C@]12CC[C@H](O)CC1=CC[C@@H]1[C@@H]2CC[C@]2(C)C(=N/N)/C(=N\O)C[C@@H]12 | 21.6 µM (inactive) | > 100 µM (inactive) | – | 9.91 µM (inactive) | 35.1 µM (inactive) | 3.94 µM | > 100 µM (inactive) | > 100 µM (inactive) | 57.4 µM (inactive) | 45.9 µM (inactive) | 27.1 µM (inactive) | > 100 µM (inactive) | > 100 µM (inactive) | > 100 µM (inactive) | > 100 µM (inactive) | 88.5 µM (inactive) | – |
| O=C1NC(O)c2cc3ccccc3cc2O1 (configuration not stated) | 26.5 µM (inactive) | – | 69.8 µM (inactive) | 28.4 µM (inactive) | > 100 µM (inactive) | 19.1 µM | > 100 µM (inactive) | > 100 µM (inactive) | 76 µM (inactive) | > 100 µM (inactive) | 59.7 µM (inactive) | > 100 µM (inactive) | 69 µM (inactive) | > 100 µM (inactive) | 29.6 µM (inactive) | – | > 100 µM (inactive) |
| COc1ccc2c(c1)CCN1CCCc3ccccc3C21 (configuration not stated) | 37.2 µM (inactive) | 54.1 µM (inactive) | 50.1 µM (inactive) | – | 26.4 µM (inactive) | 37.6 µM | 42.9 µM (inactive) | > 100 µM (inactive) | > 100 µM (inactive) | 69.2 µM (inactive) | – | > 100 µM (inactive) | 42.7 µM (inactive) | 29.4 µM (inactive) | 25.4 µM (inactive) | 46.3 µM (inactive) | – |
| CC/C(=C\c1ccc(OC)cc1)c1ccc(OC)cc1 | > 100 µM (inactive) | > 100 µM (inactive) | – | – | 53.3 µM (inactive) | 74 µM | 66.7 µM (inactive) | > 100 µM (inactive) | > 100 µM (inactive) | > 100 µM (inactive) | 50.7 µM (inactive) | > 100 µM (inactive) | > 100 µM (inactive) | > 100 µM (inactive) | > 100 µM (inactive) | 65.6 µM (inactive) | > 100 µM (inactive) |
| CNC(=S)/C(C#N)=C(\N)N1CCCC1 | > 100 µM (inactive) | > 100 µM (inactive) | > 100 µM (inactive) | > 100 µM (inactive) | – | > 100 µM | > 100 µM (inactive) | > 100 µM (inactive) | – | > 100 µM (inactive) | > 100 µM (inactive) | > 100 µM (inactive) | > 100 µM (inactive) | > 100 µM (inactive) | – | > 100 µM (inactive) | > 100 µM (inactive) |
| Cc1cn(CCCCCCOC(=O)NC(CCCNC(N)=O)C(=O)O)c(=O)[nH]c1=O (configuration not stated) | > 100 µM (inactive) | > 100 µM (inactive) | > 100 µM (inactive) | > 100 µM (inactive) | > 100 µM (inactive) | > 100 µM | > 100 µM (inactive) | > 100 µM (inactive) | > 100 µM (inactive) | > 100 µM (inactive) | – | > 100 µM (inactive) | > 100 µM (inactive) | > 100 µM (inactive) | > 100 µM (inactive) | > 100 µM (inactive) | > 100 µM (inactive) |
| COc1ccc(CC(CO)NC(=O)OCc2ccccc2)cc1Oc1ccc(CC(CO)NC(=O)OCc2ccccc2)cc1 (configuration not stated) | 21.2 µM (inactive) | 20.4 µM (inactive) | 18.3 µM (inactive) | – | 11.6 µM (inactive) | 29.4 µM | 15 µM (inactive) | 15.4 µM (inactive) | 27.9 µM (inactive) | 15.3 µM (inactive) | 7.91 µM (inactive) | 19.4 µM (inactive) | 16.7 µM (inactive) | 14.3 µM (inactive) | – | 16.1 µM (inactive) | 15.7 µM (inactive) |
| CC(C)OC(=O)[C@@H](O)[C@H](CO)C1=CC([Si](C)(C)c2ccccc2)=CON1 | > 100 µM (inactive) | > 100 µM (inactive) | > 100 µM (inactive) | – | > 100 µM (inactive) | > 100 µM | > 100 µM (inactive) | > 100 µM (inactive) | > 100 µM (inactive) | > 100 µM (inactive) | – | > 100 µM (inactive) | – | > 100 µM (inactive) | > 100 µM (inactive) | > 100 µM (inactive) | > 100 µM (inactive) |
| CCOC(=O)c1nc2ccc(C(F)(F)F)cc2nc1Oc1cc(OC)c(OC)c(OC)c1 | 55.6 µM (inactive) | – | > 100 µM (inactive) | > 100 µM (inactive) | 97.3 µM (inactive) | 72.9 µM | 97.9 µM (inactive) | 46.8 µM (inactive) | 2.64 µM (inactive) | 25.6 µM (inactive) | 35.3 µM (inactive) | 75.3 µM (inactive) | > 100 µM (inactive) | > 100 µM (inactive) | > 100 µM (inactive) | > 100 µM (inactive) | 42.5 µM (inactive) |
| O=C1CSC2(CC(/C=C/C=C/c3ccccc3)=NN2c2cccc(S(=O)(=O)O)c2)N1c1nc2ccccc2s1 (configuration not stated) | 24 µM (inactive) | 54.5 µM (inactive) | > 100 µM (inactive) | 4.24 µM (inactive) | – | 67.9 µM | > 100 µM (inactive) | – | 36.9 µM (inactive) | – | – | 34.5 µM (inactive) | 62.5 µM (inactive) | 45.3 µM (inactive) | 29.6 µM (inactive) | 26 µM (inactive) | 31.3 µM (inactive) |
| Nc1nc(N)c2ncn(-c3ccc(Br)cc3)c2n1 | 24.9 µM (inactive) | 7.21 µM (inactive) | > 43.3 µM (inactive) | – | 34.4 µM (inactive) | 19.9 µM | 20.9 µM (inactive) | 24.5 µM (inactive) | > 38.3 µM (inactive) | 23.6 µM (inactive) | 10.6 µM (inactive) | 35.1 µM (inactive) | 16.9 µM (inactive) | 13.5 µM (inactive) | 20.3 µM (inactive) | 14.4 µM (inactive) | 34.9 µM (inactive) |
| O=c1oc2c/c(=C\c3ccccc3)c(=O)c3cccc1c3-2 | 18.6 µM (inactive) | 24.1 µM (inactive) | 36.1 µM (inactive) | 27.1 µM (inactive) | > 100 µM (inactive) | 36.6 µM | 61.7 µM (inactive) | 51.1 µM (inactive) | – | 19.9 µM (inactive) | 24.2 µM (inactive) | > 100 µM (inactive) | 47.6 µM (inactive) | 30.1 µM (inactive) | > 10 µM (inactive) | – | 74.5 µM (inactive) |
| CO[C@](C(=O)OC[C@H]1[C@@H](COC(C)=O)[C@@H]2O[C@H]1c1cc3c(cc12)OCO3)(c1ccccc1)C(F)(F)F | 36.5 µM (inactive) | 32.8 µM (inactive) | 41.3 µM (inactive) | – | 18 µM (inactive) | 7.46 µM | 30.9 µM (inactive) | 34.9 µM (inactive) | 40.4 µM (inactive) | 26.2 µM (inactive) | > 100 µM (inactive) | 38.3 µM (inactive) | 25.1 µM (inactive) | 10.4 µM (inactive) | – | 28.6 µM (inactive) | 13.4 µM (inactive) |
| COc1cc2c(c(OC)c1OC)-c1ccc(SC)c(=O)cc1[C@@H](OC(=O)c1ccncc1)CC2 | < 0.01 µM (active) | < 0.01 µM (active) | – | – | < 0.01 µM (active) | < 0.01 µM | < 0.01 µM (active) | < 0.01 µM (active) | 27 µM (inactive) | – | < 0.01 µM (active) | 4.92 µM (inactive) | – | < 0.01 µM (active) | < 0.01 µM (active) | 0.407 µM (active) | < 0.01 µM (active) |
| Cc1cc(-c2nc3cc(F)ccc3s2)ccc1N | 24.2 µM (inactive) | 23.6 µM (inactive) | > 100 µM (inactive) | > 28.1 µM (inactive) | 14.8 µM (inactive) | 7.96 µM | 0.794 µM (active) | 56 µM (inactive) | – | 15.2 µM (inactive) | 40.8 µM (inactive) | < 0.01 µM (active) | 31 µM (inactive) | 4.06 µM (inactive) | < 0.01 µM (active) | 34.6 µM (inactive) | < 0.017 µM (active) |
